Experimental data taken from US20230192748A1 (DoubleRainbow Biosciences Inc., priority 2020, published 2023).
≈ marks a conversion by molar mass, not a printed value. Blank lines part the entries; values can stand above or below the compound they belong to.

Key:
[1] = distilled water, 25° C.
Protocol: (§1) Afterwards, each sample was centrifuged at 12,000×g for 20 min. The supernatant of each sample was then filtered through a 0.45-μm membrane filter and the concentration of the compound in the supernatant, which is defined as the water-soluble component, was measured by its absorbance at 254 nm using HPLC, and its absolute solubility was calculated in reference to the concentration-absorbance standard curve.

[2] = system: etoposide-resistant cell line; details: cited from earlier work
[3] = etoposide phosphate plus cisplatin; cited from earlier work
[4] = cited from earlier work
[5] = aqueous solutions, 80° C., pH 5; cited from earlier work
[6] = system: blood plasma proteins (primarily albumin); details: cited from earlier work
[7] = in vivo; cited from earlier work
physchem = details: distilled water, 25 °C, thermodynamic from solid
Protocol: as §1

water solubility relative to etoposide [1]: 200 times
Structure (SMILES): COc1cc(C2c3cc4c(cc3C(OC3OC5COC(C)OC5C(OC5OC(CO)C(O)C(O)C5O)C3O)C3COC(=O)C23)OCO4)cc(OC)c1O (stereo not drawn)

Structure (SMILES): COc1cc([C@@H]2c3cc4c(cc3[C@@H](O[C@@H]3O[C@@H]5CO[C@@H](C)O[C@H]5[C@H](O)[C@H]3O)[C@H]3COC(=O)[C@H]23)OCO4)cc(OC)c1OC(=O)OCC1COC(C)(C)O1 (stereo partly drawn) [CAP7.1]
concentrations cytotoxic to an etoposide-resistant cell line [2]: nanomolar concentrations

Structure (SMILES): COc1cc([C@@H]2c3cc4c(cc3[C@@H](O[C@@H]3O[C@@H]5CO[C@@H](C)O[C@H]5[C@H](O)[C@H]3O)[C@H]3COC(=O)[C@H]23)OCO4)cc(OC)c1OP(=O)(O)O [Etoposide phosphate]
difference in PK/PD parameters or overall response rate versus etoposide plus cisplatin [3]: no statistically significant difference
aqueous solubility [4]: 20000 µg/mL

solubility at 12 h (physchem): 56 µg/mL (≈ 95.1 µM)
Structure (SMILES): COc1cc([C@@H]2c3cc4c(cc3[C@@H](O[C@@H]3O[C@@H]5CO[C@@H](C)O[C@H]5[C@H](O)[C@H]3O)[C@H]3COC(=O)[C@H]23)OCO4)cc(OC)c1O [etoposide, Etoposide]
half life [5]: 0.643 h
bound to blood plasma proteins [6]: 97%
half-life [7]: 4 to 11 h
solubility in aqueous solutions ([4]; 37° C.): 150 to 170 µg/mL
